38 compounds from patent US20050004134A1, “Thiazole derivative and pharmaceutical use thereof” (priority 2001, published 2005) can be followed below.

Each structure is given as a SMILES string.

As to `Cc1ccccc1C(=O)Nc1nc(-c2ccccc2)c(-c2ccc(=O)n(C(C)C)n2)s1` [Example 34, N-[5-(1-Isopropyl-6-oxo-1,6-dihydro-3-pyridazinyl)-4-phenyl-1,3-thiazol-2-yl]-2-methylbenzamide], the melting point (commonly the temperature of the solid-liquid transition) is 221 to 222 °C. In turn, `CC(C)n1nc(-c2sc(NC(=O)c3c(Cl)cccc3Cl)nc2-c2ccccc2)ccc1=O` [Example 49, 2,6-Dichloro-N-[5-(1-isopropyl-6-oxo-1,6-dihydro-3-pyridazinyl)-4-phenyl-1,3-thiazol-2-yl]benzamide] registered a melting point of 248 to 249 °C. As for `CC(C)n1nc(-c2sc(N)nc2-c2ccc(F)cc2)ccc1=O` [Example 77, 6-[2-amino-4-(4-fluorophenyl)-1,3-thiazol-5-yl]-2-isopropyl-3(2H)-pyridazinone], the melting point was 255.5 to 257 °C. The compound `CC(C)n1nc(-c2sc(C(=O)NCc3ccncc3)nc2-c2ccc(F)cc2)ccc1=O` [Example 236, 4-(4-Fluorophenyl)-5-(1-isopropyl-6-oxo-1,6-dihydro-3-pyridazinyl)-N-(4-pyridinylmethyl)-1,3-thiazole-2-carboxamide] registered a melting point of 155 to 157 °C. Regarding `C=CCn1nc(-c2sc(C(=O)NC(C)C)nc2-c2ccccc2)ccc1=O` [Example 181, 5-(1-allyl-6-oxo-1,6-dihydro-3-pyridazinyl)-N-isopropyl-4-phenyl-1,3-thiazole-2-carboxamide], the melting point was in the range of 166 to 167 °C.

In turn, `CC(C)n1nc(-c2sc(NC=O)nc2-c2ccccc2)ccc1=O` [Example 94, 5-(1-isopropyl-6-oxo-1,6-dihydro-3-pyridazinyl)-4-phenyl-1,3-thiazol-2-ylformamide] returned a melting point of 232 to 234 °C. `CC(C)NC(=O)c1nc(-c2cccc(Cl)c2)c(-c2ccc(=O)n(C(C)C)n2)s1` [Example 187, 4-(3-chlorophenyl)-N-isopropyl-5-(1-isopropyl-6-oxo-1,6-dihydro-3-pyridazinyl)-1,3-thiazole-2-carboxamide]: the melting point fell in the range of 105 to 106 °C. As for `Br.CC(C)n1nc(-c2sc(Nc3ccccc3)nc2-c2ccccc2)ccc1=O`, the melting point was 127 to 129 °C. Turning to `CC(C)NC(=O)c1nc(-c2ccccc2)c(-c2ccc(=O)n(C)n2)s1` [Example 177, N-isopropyl-5-(1-methyl-6-oxo-1,6-dihydro-3-pyridazinyl)-4-phenyl-1,3-thiazole-2-carboxamide], the melting point was 154 to 154.5 °C. `CC(=O)Nc1nc(-c2ccccc2)c(-c2ccc(=O)n(C(C)C)n2)s1` [Example 6, N-[5-(1-isopropyl-6-oxo-1,6-dihydro-3-pyridazinyl)-4-phenyl-1,3-thiazol-2-yl]-acetamide] registered a melting point of 202 to 204 °C.

Compound `CC(C)n1nc(-c2sc(NC(=O)c3ccc(CCl)cc3)nc2-c2ccccc2)ccc1=O` [Example 56, 4-(Chloromethyl)-N-[5-(1-isopropyl-6-oxo-1,6-dihydro-3-pyridazinyl)-4-phenyl-1,3-thiazol-2-yl]benzamide] had a melting point of over 250 °C. `CC(C)n1nc(-c2sc(NC(C)(C)C)nc2-c2ccccc2)ccc1=O` [Example 61, 6-[2-(tert-Butylamino)-4-phenyl-1,3-thiazol-5-yl]-2-isopropyl-3(2H)-pyridazinone] registered a melting point of 189 to 190 °C. Regarding `CC(C)n1nc(-c2sc(N)nc2-c2ccccc2F)ccc1=O` [Example 79, 6-[2-Amino-4-(2-fluorophenyl)-1,3-thiazol-5-yl]-2-isopropyl-3(2H)-pyridazinone], the melting point lay within 233 to 235 °C. On to `CC(C)n1nc(-c2sc(NC(=O)NCc3ccccc3)nc2-c2ccccc2)ccc1=O` [Example 11, N-benzyl-N′-[5-(1-isopropyl-6-oxo-1,6-dihydro-3-pyridazinyl)-4-phenyl-1,3-thiazol-2-yl]urea], for which the melting point lay within 200 to 201 °C.

For `C=CCn1nc(-c2sc(N)nc2-c2ccccc2)ccc1=O` [Example 93, 2-Allyl-6-(2-amino-4-phenyl-1,3-thiazol-5-yl)-3(2H)-pyridazinone], the melting point fell in the range of 212 to 215 °C. `CC(C)n1nc(-c2sc(NC(=O)CNCCCO)nc2-c2ccccc2)ccc1=O.Cl` gave a melting point of 136 to 142 °C. `CC(C)n1nc(-c2sc(NC(=O)c3ccc(I)cc3)nc2-c2ccccc2)ccc1=O` [Example 51, 4-Iodo-N-[5-(1-isopropyl-6-oxo-1,6-dihydro-3-pyridazinyl)-4-phenyl-1,3-thiazol-2-yl]benzamide] gave a melting point of 253 to 254 °C.

On to `COc1ccccc1C(=O)Nc1nc(-c2ccccc2)c(-c2ccc(=O)n(C(C)C)n2)s1` [Example 41, N-[5-(1-Isopropyl-6-oxo-1,6-dihydro-3-pyridazinyl)-4-phenyl-1,3-thiazol-2-yl]-2-methoxybenzamide], for which the melting point is over 250 °C. `CCCNC(=O)c1nc(-c2ccccc2)c(-c2ccc(=O)n(C(C)C)n2)s1` [Example 173, 5-(1-isopropyl-6-oxo-1,6-dihydro-3-pyridazinyl)-4-phenyl-N-propyl-1,3-thiazole-2-carboxamide] had a melting point of 141 to 142 °C.

Consider `CC(C)n1nc(-c2sc(NC(=O)CN(C)CCc3ccccn3)nc2-c2ccccc2)ccc1=O` [Example 111, N-[5-(1-Isopropyl-6-oxo-1,6-dihydro-3-pyridazinyl)-4-phenyl-1,3-thiazol-2-yl]-2-{methyl[2-(2-pyridinyl)ethyl]amino}acetamide], for which the melting point was in the range of 94 to 96 °C. The compound `CCCCNC(=O)c1nc(-c2ccccc2)c(-c2ccc(=O)n(C(C)C)n2)s1` [Example 215, N-butyl-5-(1-isopropyl-6-oxo-1,6-dihydro-3-pyridazinyl)-4-phenyl-1,3-thiazole-2-carboxamide] displayed a melting point of 147.5 to 148.5 °C. On to `CC(C)NC(=O)c1nc(-c2ccccc2)c(-c2ccc(=O)n(Cc3ccccc3)n2)s1` [Example 182, 5-(1-benzyl-6-oxo-1,6-dihydro-3-pyridazinyl)-N-isopropyl-4-phenyl-1,3-thiazole-2-carboxamide], for which the melting point was 163.5 to 165 °C. Take `CC(=O)Nc1nc(-c2ccc(F)cc2)c(-c2ccc(=O)n(C(C)C)n2)s1` [Example 82, N-[4-(4-fluorophenyl)-5-(1-isopropyl-6-oxo-1,6-dihydro-3-pyridazinyl)-1,3-thiazol-2-yl]acetamide]: the melting point was in the range of 236 to 237.5 °C. `CC(C)n1nc(-c2sc(NC(=O)c3ccccc3Cl)nc2-c2ccccc2)ccc1=O` [Example 46, 2-Chloro-N-[5-(1-isopropyl-6-oxo-1,6-dihydro-3-pyridazinyl)-4-phenyl-1,3-thiazol-2-yl]benzamide] displayed a melting point of 220 to 221 °C. Consider `CC(C)n1nc(-c2sc(NC(=O)c3ccccc3OC(F)(F)F)nc2-c2ccccc2)ccc1=O` [Example 53, N-[5-(1-Isopropyl-6-oxo-1,6-dihydro-3-pyridazinyl)-4-phenyl-1,3-thiazol-2-yl]-2-(trifluoromethoxy)benzamide], for which the melting point lay within 212 to 213 °C. With `CC(C)NC(=O)c1nc(-c2ccccc2)c(-c2ccc(=O)[nH]n2)s1` [Example 176, N-isopropyl-5-(6-oxo-1,6-dihydro-3-pyridazinyl)-4-phenyl-1,3-thiazole-2-carboxamide] the figure was over 250 °C. As to `CCNc1nc(-c2ccccc2)c(-c2ccc(=O)n(C(C)C)n2)s1` [Example 62, 6-[2-(Ethylamino)-4-phenyl-1,3-thiazol-5-yl]-2-isopropyl-3(2H)-pyridazinone], the melting point lay within 167 to 169 °C. With `CC(O)CNCC(=O)Nc1nc(-c2ccccc2)c(-c2ccc(=O)n(C(C)C)n2)s1.Cl` (centres unmarked) the figure was 209 to 211 °C; with `CC(C)n1nc(-c2sc(NCc3ccccc3)nc2-c2ccccc2)ccc1=O` [Example 65, 6-[2-(Benzylamino)-4-phenyl-1,3-thiazol-5-yl]-2-isopropyl-3 (2H)-pyridazinone], 157 to 158 °C; with `CC(=O)N1CCN(CC(=O)Nc2nc(-c3ccccc3)c(-c3ccc(=O)n(C(C)C)n3)s2)CC1` [Example 150, 2-(4-Acetyl-1-piperazinyl)-N-[5-(1-isopropyl-6-oxo-1,6-dihydro-3-pyridazinyl)-4-phenyl-1,3-thiazol-2-yl]acetamide], 220 to 222 °C. For the compound `CC(C)n1nc(-c2sc(C(N)=O)nc2-c2cccc(Cl)c2)ccc1=O` [Example 166, 4-(3-Chlorophenyl)-5-(1-isopropyl-6-oxo-1,6-dihydro-3-pyridazinyl)-1,3-thiazole-2-carboxamide], the melting point fell in the range of 232 to 234.5 °C. Compound `CC(=O)N1CCN(C(=O)c2nc(-c3ccccc3)c(-c3ccc(=O)n(C(C)C)n3)s2)CC1` [Example 219, 6-{2-[(4-Acetyl-1-piperazinyl)carbonyl]-4-phenyl-1,3-thiazol-5-yl}-2-isopropyl-3(2H)-pyridazinone] showed a melting point of 78 to 82 °C. Take `CC(C)n1nc(-c2sc(NC(=O)CNCC(O)c3ccccc3)nc2-c2ccccc2)ccc1=O.Cl` (centres unmarked): the melting point was 218 to 220 °C. In turn, `CC(C)n1nc(-c2sc(NC(=O)CN3CCCC3)nc2-c2ccccc2)ccc1=O.Cl` yielded a melting point of over 250 °C. In the case of `CC(C)n1nc(-c2sc(NC(=O)c3ccccc3)nc2-c2ccc(F)cc2)ccc1=O` [Example 83, N-[4-(4-Fluorophenyl)-5-(1-isopropyl-6-oxo-1,6-dihydro-3-pyridazinyl)-1,3-thiazol-2-yl]-benzamide], the melting point is 202 to 203.5 °C.

For the compound `CCCn1nc(-c2sc(C(N)=O)nc2-c2ccccc2)ccc1=O` [Example 167, 5-(6-oxo-1-propyl-1,6-dihydro-3-pyridazinyl)-4-phenyl-1,3-thiazole-2-carboxamide], the melting point lay within 201 to 202 °C.

`CC(C)n1nc(-c2sc(NC(=O)C3CC3)nc2-c2ccccc2)ccc1=O` [Example 33, N-[5-(1-Isopropyl-6-oxo-1,6-dihydro-3-pyridazinyl)-4-phenyl-1,3-thiazol-2-yl]cyclopropanecarboxamide] gave a melting point of 226 to 227 °C.

`CC(C)n1nc(-c2sc(NC(=O)c3cccc(F)c3)nc2-c2ccccc2)ccc1=O` [Example 36, 3-Fluoro-N-[5-(1-isopropyl-6-oxo-1,6-dihydro-3-pyridazinyl)-4-phenyl-1,3-thiazol-2-yl]benzamide] returned a melting point of 183 to 184 °C.
